Test results reported in US8551963B2, “Imidazolothiazole compounds and methods of use thereof” (Ambit Biosciences Corporation, priority 2008, dated 2013).
In brackets after ≈: the same amount, converted by molar mass. Counter-ions that a name gives are not always drawn. Like-named read-outs stand apart in the source and are kept apart here.

Columns and labels:
in vitro [1] = details: monkey, microsomes, pH 7.4
In vivo clearance, dog = assay: In vivo clearance, dog
Excerpt: (§1) Clearance was modest in dog microsomes, and high in Cynomolgus monkey microsomes. Using a comparison of in vitro and in vivo clearance, human clearance can be predicted. The in vitro intrinsic clearance is influenced by animal weight, hepatic blood flow, relative liver weight, and amount of protein/liver weight. […] Human clearance is predicted to be low (Table 2).

MV4;11 cells = assay: MV4;11 cellular proliferation assay (Cell Titer Blue); assay type: cell-based; details: Homo sapiens, MV4-11, 72 h, read-out: EC50 (50% inhibition of cellular proliferation)
in vitro [2] = details: dog, microsomes
in vitro [3] = details: both, human, microsomes, pH 7.4
[4] = Microsomal stability, pooled mouse liver microsomes; assay type: in vitro ADME; details: pH 7.4
Procedure: Microsomes were stored at −80° C. prior to use.
The final incubation volume was 600 μL.
The elimination rate constant (k)=(−slope)

RS4;11 cells = assay: RS4;11 cellular proliferation assay (Cell Titer Blue); assay type: cell-based; details: Homo sapiens, RS4-11, 48 h, read-out: EC50 (50% inhibition of cellular proliferation)
in vitro [5] = details: rat, microsomes, pH 7.4
In vivo clearance, rat = assay: In vivo clearance, rat
Excerpt: as §1

[6] = In vivo clearance, monkey
Excerpt: as §1

In vivo clearance, mouse = details: clearance call in words
Excerpt: as §1

[7] = dog, microsomes, 1 μM, pH 7.4
[8] = Predicted human in vivo clearance; details: predicted from comparison of in vitro and in vivo clearance
Excerpt: as §1

plasma protein = assay: Plasma protein binding assay (equilibrium dialysis); assay type: in vitro ADME; details: 1 μM, equilibrium dialysis 16-20 hours at 37° C.
Procedure: Reagents: 1× Isotonic PBS (Mediatech, Inc., Herndon, Va.); 96 Well Equilibrium Dialyzer (Harvard Apparatus, Holliston, Mass.) and Animal plasma from species of interest.
1 μM solutions of test compound were prepared in both isotonic PBS and 10% animal plasma in isotonic PBS.
200 μl of each test solution was added to opposite sides of the equilibrium dialysis membrane.
Samples were incubated for 16-20 hours at 37° C.
After incubation, 100 μl sample was removed from the PBS side and diluted with 100 μl of 20% animal plasma in PBS.
100 μl sample was removed from the 10% animal plasma side and diluted with 100 μl of 10% animal plasma.
A calibration curve was prepared in 10% animal plasma to extrapolate unknown concentrations.
Samples were analyzed by LC/MS/MS.
50 μl of samples, calibration standards and quality control standards were extracted with 100 μl of acetonitrile containing 25 ng/ml of internal standard.
Calculations Calculate fraction unbound in 10% plasma Fu(10%)=1−(PC−PF)/PC) Convert 10% plasma value to 100% Fu(100%)=Fu10%/(10−9*Fu10%).

P-Glycoprotein = P-Glycoprotein (Homo sapiens (Human), UniProt P08183); assay: Digoxin bidirectional MDR1-MDCK permeability, Compound I-1 as an inhibitor; details: dog; for Papp A→B at 1 μM: MDCK-MDR1, pH 7.4, Digoxin PeAP→BL; for Papp B→A at 1 μM: MDCK-MDR1, pH 7.4, Digoxin PeBL→AP
Sequence of P-Glycoprotein (P08183 whole entry): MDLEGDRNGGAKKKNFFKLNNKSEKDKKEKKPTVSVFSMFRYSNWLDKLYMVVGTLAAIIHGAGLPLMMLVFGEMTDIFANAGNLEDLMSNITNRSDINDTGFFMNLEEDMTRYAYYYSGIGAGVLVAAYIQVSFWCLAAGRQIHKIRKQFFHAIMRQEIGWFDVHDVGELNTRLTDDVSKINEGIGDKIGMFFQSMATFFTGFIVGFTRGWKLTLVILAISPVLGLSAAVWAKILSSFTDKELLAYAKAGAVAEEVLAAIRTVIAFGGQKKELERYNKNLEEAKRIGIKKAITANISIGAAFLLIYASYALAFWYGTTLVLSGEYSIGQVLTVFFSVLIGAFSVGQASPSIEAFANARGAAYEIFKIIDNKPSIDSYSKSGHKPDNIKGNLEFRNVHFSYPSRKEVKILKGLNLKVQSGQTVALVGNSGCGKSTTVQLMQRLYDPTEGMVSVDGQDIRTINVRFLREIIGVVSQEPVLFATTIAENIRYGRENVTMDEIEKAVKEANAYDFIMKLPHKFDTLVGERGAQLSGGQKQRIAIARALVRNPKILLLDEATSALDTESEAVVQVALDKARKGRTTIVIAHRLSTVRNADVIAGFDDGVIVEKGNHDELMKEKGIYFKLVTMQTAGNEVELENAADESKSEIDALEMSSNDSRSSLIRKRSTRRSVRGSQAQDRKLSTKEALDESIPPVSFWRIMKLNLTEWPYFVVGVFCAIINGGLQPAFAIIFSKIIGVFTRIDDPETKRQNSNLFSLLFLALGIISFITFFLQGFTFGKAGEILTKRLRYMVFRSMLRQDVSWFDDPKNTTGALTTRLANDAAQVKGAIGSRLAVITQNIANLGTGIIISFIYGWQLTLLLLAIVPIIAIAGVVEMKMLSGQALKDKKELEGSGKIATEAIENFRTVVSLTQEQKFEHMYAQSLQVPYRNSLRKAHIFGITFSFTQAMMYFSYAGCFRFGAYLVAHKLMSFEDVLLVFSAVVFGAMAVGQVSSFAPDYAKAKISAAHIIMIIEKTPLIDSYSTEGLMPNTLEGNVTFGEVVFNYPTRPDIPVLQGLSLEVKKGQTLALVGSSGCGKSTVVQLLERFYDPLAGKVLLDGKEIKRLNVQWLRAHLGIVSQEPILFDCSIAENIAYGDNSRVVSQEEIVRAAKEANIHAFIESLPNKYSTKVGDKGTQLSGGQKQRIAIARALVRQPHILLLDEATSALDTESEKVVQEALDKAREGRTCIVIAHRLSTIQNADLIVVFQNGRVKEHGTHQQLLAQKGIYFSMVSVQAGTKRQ

[9] = Aqueous and surfactant solubility; assay type: physicochemical; details: room temperature overnight
P-glycoprotein (MDR1) = assay: in vitro; details: dog
MDR1-MDCK cells = details: dog, MDCK-MDR1, 10 μM, pH 7.4
[10] = Microsomal stability and metabolic turnover, pooled rat liver microsomes; details: pH 7.4
[11] = Microsomal stability and metabolic turnover, pooled dog liver microsomes; details: pH 7.4
[12] = Microsomal stability and metabolic turnover, pooled human liver microsomes; details: both, pH 7.4
[13] = Microsomal stability and metabolic turnover, pooled Cynomolgus monkey liver microsomes; details: pH 7.4
[14] = in vivo, read-out: In Vivo t1/2 (converted)
[15] = Table 17, Digoxin 1 μM alone, Std
[16] = Table 17, Digoxin 1 μM alone, Surf.
[17] = preliminary experiment, Digoxin 1 μM alone, Std
[18] = preliminary experiment, Digoxin 1 μM alone, Surf.

CC(C)(C)c1cc(NC(=O)Nc2ccc(-c3cn4c(n3)sc3cc(OCCN5CCOCC5)ccc34)cc2)no1 [Compound IA, N-(5-tert-butyl-isoxazol-3-yl)-N′-{4-[7-(2-morpholin-4-yl-ethoxy)imidazo[2,1-b][1,3]benzothiazol-2-yl]phenyl}urea]
half-life at 1 μM (in vitro [1]): 19 min | microsomal CLint at 1 μM (in vitro [1]): 73 µL/min/mg | In Vivo Cl (In vivo clearance, dog; clearance call in words): Modest | half-life (In vivo clearance, dog; [14]): 366 min | EC50 (MV4;11 cells): 0.6 nM | microsomal CLint at 1 μM (in vitro [2]; pH 7.4): 42 µL/min/mg | half-life at 1 μM (in vitro [2]; pH 7.4, Half-life): 33 min | half-life at 1 μM (in vitro [3]): > 60 min | microsomal CLint at 1 μM (in vitro [3]): < 23 µL/min/mg | half-life at 1 μM ([4]; mouse, microsomes): > 60 min | microsomal CLint at 1 μM ([4]; mouse, microsomes): < 23 µL/min/mg | EC50 (RS4;11 cells): 4 nM | half-life at 1 μM (in vitro [5]): > 60 min | microsomal CLint at 1 μM (in vitro [5]): < 23 µL/min/mg | In Vivo Cl (In vivo clearance, rat; clearance call in words): Low | half-life (In vivo clearance, rat; [14]): 414 min | In Vivo Cl ([6]; clearance call in words): High | half-life [6, 14]: 162 min | In Vivo Cl (In vivo clearance, mouse): Low | half-life [7]: 24 min | In Vivo Cl [8]: low and Low

CC(C)(C)c1cc(NC(=O)Nc2ccc(-c3cn4c(n3)sc3cc(OCCN5CCOCC5)ccc34)cc2)no1 [Compound IA, hydrochloride salt, N-(5-tert-butyl-isoxazol-3-yl)-N′-{4-[7-(2-morpholin-4-yl-ethoxy)imidazo[2,1-b][1,3]benzothiazol-2-yl]phenyl}urea, reference compound]
Percentage of unbound compound in 10% plasma (plasma protein): 17%

C[C@H]1O[C@@H](O[C@H]2[C@@H](O)C[C@H](O[C@H]3[C@@H](O)C[C@H](O[C@H]4CC[C@@]5(C)[C@H](CC[C@@H]6[C@@H]5C[C@@H](O)[C@]5(C)[C@@H](C7=CC(=O)OC7)CC[C@]65O)C4)O[C@@H]3C)O[C@@H]2C)C[C@H](O)[C@@H]1O [Digoxin, reference compound]
Papp A→B at 1 μM (P-Glycoprotein; [15]): 8.76 ×10⁻⁶ cm/s | Papp A→B at 1 μM (P-Glycoprotein; [16]): 2.21 ×10⁻⁶ cm/s | Papp A→B at 1 μM (P-Glycoprotein; [17]): 0.24 ×10⁻⁶ cm/s | Papp A→B at 1 μM (P-Glycoprotein; [18]): 2.91 ×10⁻⁶ cm/s | Papp B→A at 1 μM (P-Glycoprotein; [15]): 29.3 ×10⁻⁶ cm/s | Papp B→A at 1 μM (P-Glycoprotein; [16]): 4.93 ×10⁻⁶ cm/s | Papp B→A at 1 μM (P-Glycoprotein; [17]): 20 ×10⁻⁶ cm/s | Papp B→A at 1 μM (P-Glycoprotein; [18]): 6.03 ×10⁻⁶ cm/s

CC(=O)N1CCN(c2ccc(OCC3COC(Cn4ccnc4)(c4ccc(Cl)cc4Cl)O3)cc2)CC1 (stereo not drawn) [Ketoconazole]
solubility ([9]; HBSS containing 0.05% Polysorbate 80, 2.5% DMSO, read-out: Average Aqueous Solubility, 0.05% Polysorbate 80): 86 µM (≈ 45.7 µg/mL) | solubility ([9]; HBSS pH 7.4, 2.5% DMSO, read-out: Average Aqueous Solubility, pH 7.4): 18 µM (≈ 9.57 µg/mL)

CC(C)NCC(O)COc1cccc2[nH]ccc12 (stereo not drawn) [Pindolol]
efflux ratio at 10 μM (P-glycoprotein (MDR1); MDCK-MDR1, pH 7.4, Assymetry Index): 1 | Papp A→B at 10 μM (P-glycoprotein (MDR1); MDCK-MDR1, pH 7.4, PeAP→BL): 31.7 ×10⁻⁶ cm/s | Papp B→A at 10 μM (P-glycoprotein (MDR1); MDCK-MDR1, pH 7.4, PeBL→AP): 30.6 ×10⁻⁶ cm/s

CNC(=C[N+](=O)[O-])NCCSCc1ccc(CN(C)C)o1 [Ranitidine]
Assymetry Index (MDR1-MDCK cells): 1.9 | PeAP→BL (MDR1-MDCK cells): 1.63 ×10⁻⁶ cm/s | PeBL→AP (MDR1-MDCK cells): 3.02 ×10⁻⁶ cm/s

COC(=O)[C@H]1[C@H]2C[C@@H]3c4[nH]c5cc(OC)ccc5c4CCN3C[C@H]2C[C@@H](OC(=O)c2cc(OC)c(OC)c(OC)c2)[C@@H]1OC [Reserpine]
solubility ([9]; HBSS buffer with 0.05% Polysorbate 80, pH 7.4, aqueous with cosolvent or surfactant or cyclodextrin, kinetic from dmso stock, HBSS containing 0.05% Polysorbate 80, 2.5% DMSO, read-out: Average Aqueous Solubility, 0.05% Polysorbate 80): 5 µM (≈ 3.04 µg/mL) | solubility ([9]; Hank's balanced salt solution (HBSS) buffer, aqueous buffer, kinetic from dmso stock, HBSS pH 7.4, 2.5% DMSO, read-out: Average Aqueous Solubility, pH 7.4): < 1 µM

C[C@]12CC[C@H]3[C@@H](CCC4=CC(=O)CC[C@@]43C)[C@@H]1CC[C@@H]2O [Testosterone]
half-life at 1 μM [10]: 4 min | half-life at 1 μM [11]: 60 min | half-life at 1 μM [12]: 11 min | half-life at 1 μM ([4]; mouse liver microsomes, 1 μM, 0.5 mg/mL, NADPH, read-out: Half-life): 6 min | half-life at 1 μM [13]: 3 min
